According to PubChem BioAssay (NCI):
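All cell lines were grown in 96-well plates and treated with compound for 48 hours. The concentration for 50% growth inhibition is given as GI50. The concentration for full growth arrest is given as TGI.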

Key:
Assay in all cases: growth of human tumour cells (NCI), 48 h
786-0 renal = system: 786-0 renal
A498 renal = system: A498 renal
A549 NSCLC = system: A549 NSCLC
ACHN renal = system: ACHN renal
BT-549 breast = system: BT-549 breast
CAKI-1 renal = system: CAKI-1 renal
CCRF-CEM leukemia = system: CCRF-CEM leukemia
COLO 205 colon = system: COLO 205 colon
DU-145 prostate = system: DU-145 prostate
EKVX NSCLC = system: EKVX NSCLC
HCC-2998 colon = system: HCC-2998 colon
HCT-116 colon = system: HCT-116 colon
HCT-15 colon = system: HCT-15 colon
HL-60(TB) leukemia = system: HL-60(TB) leukemia
HOP-62 NSCLC = system: HOP-62 NSCLC
HOP-92 NSCLC = system: HOP-92 NSCLC
HS 578T breast = system: HS 578T breast
HT29 colon = system: HT29 colon
IGROV1 ovarian = system: IGROV1 ovarian
K-562 leukemia = system: K-562 leukemia
KM12 colon = system: KM12 colon
LOX IMVI melanoma = system: LOX IMVI melanoma
M14 melanoma = system: M14 melanoma
MALME-3M melanoma = system: MALME-3M melanoma
MCF7 breast = system: MCF7 breast
MDA-MB-231 breast = system: MDA-MB-231 breast
MDA-MB-435 = system: MDA-MB-435
MOLT-4 leukemia = system: MOLT-4 leukemia
NCI-H226 lung = system: NCI-H226 lung
NCI-H23 lung = system: NCI-H23 lung
NCI-H460 lung = system: NCI-H460 lung
NCI-H522 lung = system: NCI-H522 lung
NCI/ADR-RES ovarian = system: NCI/ADR-RES ovarian
OVCAR-3 ovarian = system: OVCAR-3 ovarian
OVCAR-4 ovarian = system: OVCAR-4 ovarian
OVCAR-5 ovarian = system: OVCAR-5 ovarian
OVCAR-8 ovarian = system: OVCAR-8 ovarian
PC-3 prostate = system: PC-3 prostate
RPMI-8226 leukemia = system: RPMI-8226 leukemia
RXF 393 renal = system: RXF 393 renal
SF-268 CNS = system: SF-268 CNS
SF-295 CNS = system: SF-295 CNS
SF-539 CNS = system: SF-539 CNS
SK-MEL-2 melanoma = system: SK-MEL-2 melanoma
SK-MEL-28 melanoma = system: SK-MEL-28 melanoma
SK-MEL-5 melanoma = system: SK-MEL-5 melanoma
SK-OV-3 ovarian = system: SK-OV-3 ovarian
SN12C renal = system: SN12C renal
SNB-19 CNS = system: SNB-19 CNS
SNB-75 CNS = system: SNB-75 CNS
SR leukemia = system: SR leukemia
SW-620 colon = system: SW-620 colon
T-47D breast = system: T-47D breast
TK-10 renal = system: TK-10 renal
U251 CNS = system: U251 CNS
UACC-257 melanoma = system: UACC-257 melanoma
UACC-62 melanoma = system: UACC-62 melanoma
UO-31 renal = system: UO-31 renal

SMILES: CN1CCN(Cc2ccc(NC(=O)c3cncc(C#Cc4cnc5ccc(Cl)nn45)c3)cc2C(F)(F)F)CC1
- GI50 (786-0 renal): 1.01 µM
- TGI (786-0 renal): 1.85 µM
- GI50 (A498 renal): 1.12 µM
- TGI (A498 renal): 2.6 µM
- GI50 (A549 NSCLC): 1.28 µM
- TGI (A549 NSCLC): 4.29 µM
- GI50 (ACHN renal): 0.769 µM
- TGI (ACHN renal): 2.94 µM
- GI50 (BT-549 breast): 1.45 µM
- TGI (BT-549 breast): 3.85 µM
- GI50 (CAKI-1 renal): 1 µM
- TGI (CAKI-1 renal): 4.63 µM
- GI50 (CCRF-CEM leukemia): 1.29 µM
- TGI (CCRF-CEM leukemia): 4.84 µM
- GI50 (COLO 205 colon): 0.688 µM
- TGI (COLO 205 colon): 2.08 µM
- GI50 (DU-145 prostate): 1.18 µM
- TGI (DU-145 prostate): 4.38 µM
- GI50 (EKVX NSCLC): 0.91 µM
- TGI (EKVX NSCLC): 2.34 µM
- GI50 (HCC-2998 colon): 0.949 µM
- TGI (HCC-2998 colon): 2.66 µM
- GI50 (HCT-116 colon): 0.259 µM
- TGI (HCT-116 colon): 1.34 µM
- GI50 (HCT-15 colon): 0.901 µM
- TGI (HCT-15 colon): 3.36 µM
- GI50 (HL-60(TB) leukemia): 0.318 µM
- TGI (HL-60(TB) leukemia): 1.47 µM
- GI50 (HOP-62 NSCLC): 1.27 µM
- TGI (HOP-62 NSCLC): 3.73 µM
- GI50 (HOP-92 NSCLC): 0.454 µM
- TGI (HOP-92 NSCLC): 3.63 µM
- GI50 (HS 578T breast): 0.886 µM
- TGI (HS 578T breast): 3.29 µM
- GI50 (HT29 colon): 0.747 µM
- TGI (HT29 colon): 5.71 µM
- GI50 (IGROV1 ovarian): 0.889 µM
- TGI (IGROV1 ovarian): 3.54 µM
- GI50 (K-562 leukemia): 0.005 µM
- TGI (K-562 leukemia): 2.96 µM
- GI50 (KM12 colon): 0.005 µM
- TGI (KM12 colon): 2.13 µM
- GI50 (LOX IMVI melanoma): 0.757 µM
- TGI (LOX IMVI melanoma): 1.6 µM
- GI50 (M14 melanoma): 0.59 µM
- TGI (M14 melanoma): 1.34 µM
- GI50 (MALME-3M melanoma): 0.495 µM
- TGI (MALME-3M melanoma): 1.23 µM
- GI50 (MCF7 breast): 0.287 µM
- TGI (MCF7 breast): 1.92 µM
- GI50 (MDA-MB-231 breast): 0.567 µM
- TGI (MDA-MB-231 breast): 2.3 µM
- GI50 (MDA-MB-435): 0.736 µM
- TGI (MDA-MB-435): 2.09 µM
- GI50 (MOLT-4 leukemia): 0.682 µM
- TGI (MOLT-4 leukemia): 3.89 µM
- GI50 (NCI-H226 lung): 0.507 µM
- TGI (NCI-H226 lung): 2.7 µM
- GI50 (NCI-H23 lung): 0.751 µM
- TGI (NCI-H23 lung): 2.18 µM
- GI50 (NCI-H460 lung): 0.871 µM
- TGI (NCI-H460 lung): 2.06 µM
- GI50 (NCI-H522 lung): 0.878 µM
- TGI (NCI-H522 lung): 2.78 µM
- GI50 (NCI/ADR-RES ovarian): 1.59 µM
- TGI (NCI/ADR-RES ovarian): 5.24 µM
- GI50 (OVCAR-3 ovarian): 1.58 µM
- TGI (OVCAR-3 ovarian): 4 µM
- GI50 (OVCAR-4 ovarian): 0.453 µM
- TGI (OVCAR-4 ovarian): 3.66 µM
- GI50 (OVCAR-5 ovarian): 0.83 µM
- TGI (OVCAR-5 ovarian): 3.55 µM
- GI50 (OVCAR-8 ovarian): 1.46 µM
- TGI (OVCAR-8 ovarian): 5.27 µM
- GI50 (PC-3 prostate): 1.2 µM
- TGI (PC-3 prostate): 5.24 µM
- GI50 (RPMI-8226 leukemia): 0.954 µM
- TGI (RPMI-8226 leukemia): 2.69 µM
- GI50 (RXF 393 renal): 0.828 µM
- TGI (RXF 393 renal): 1.77 µM
- GI50 (SF-268 CNS): 1.25 µM
- TGI (SF-268 CNS): 2.83 µM
- GI50 (SF-295 CNS): 1.38 µM
- TGI (SF-295 CNS): 5.32 µM
- GI50 (SF-539 CNS): 0.54 µM
- TGI (SF-539 CNS): 1.21 µM
- GI50 (SK-MEL-2 melanoma): 0.744 µM
- TGI (SK-MEL-2 melanoma): 1.98 µM
- GI50 (SK-MEL-28 melanoma): 0.918 µM
- TGI (SK-MEL-28 melanoma): 2.59 µM
- GI50 (SK-MEL-5 melanoma): 0.849 µM
- TGI (SK-MEL-5 melanoma): 1.59 µM
- GI50 (SK-OV-3 ovarian): 1.75 µM
- TGI (SK-OV-3 ovarian): 4.96 µM
- GI50 (SN12C renal): 0.969 µM
- TGI (SN12C renal): 3.48 µM
- GI50 (SNB-19 CNS): 1.78 µM
- TGI (SNB-19 CNS): 4.89 µM
- GI50 (SNB-75 CNS): 0.972 µM
- TGI (SNB-75 CNS): 2.1 µM
- GI50 (SR leukemia): 0.975 µM
- TGI (SR leukemia): 6.1 µM
- GI50 (SW-620 colon): 0.631 µM
- TGI (SW-620 colon): 3.66 µM
- GI50 (T-47D breast): 1.41 µM
- TGI (T-47D breast): 6.58 µM
- GI50 (TK-10 renal): 1.64 µM
- TGI (TK-10 renal): 4.46 µM
- GI50 (U251 CNS): 1.22 µM
- TGI (U251 CNS): 4.34 µM
- GI50 (UACC-257 melanoma): 1.21 µM
- TGI (UACC-257 melanoma): 4.13 µM
- GI50 (UACC-62 melanoma): 0.925 µM
- TGI (UACC-62 melanoma): 2.4 µM
- GI50 (UO-31 renal): 1.28 µM
- TGI (UO-31 renal): 3.36 µM
